# Measured values taken from ChEMBL document CHEMBL1127516, “Synthesis and structure-activity relationships of deazaxanthines: analogs of potent A1- and A2-adenosine receptor antagonists” (J Med Chem, 1994).
# pKi: −log10 of the molar value.
# How the values were obtained:
# Adenosine receptor A1 = target: T1, Adenosine receptor A1 (Rattus norvegicus, UniProt P25099); test: Binding affinity to A1 adenosine receptor from rat cortical membrane in presence of [3H]R-(phenylisopropyl)-adenosine
# T1 sequence (P25099 whole entry): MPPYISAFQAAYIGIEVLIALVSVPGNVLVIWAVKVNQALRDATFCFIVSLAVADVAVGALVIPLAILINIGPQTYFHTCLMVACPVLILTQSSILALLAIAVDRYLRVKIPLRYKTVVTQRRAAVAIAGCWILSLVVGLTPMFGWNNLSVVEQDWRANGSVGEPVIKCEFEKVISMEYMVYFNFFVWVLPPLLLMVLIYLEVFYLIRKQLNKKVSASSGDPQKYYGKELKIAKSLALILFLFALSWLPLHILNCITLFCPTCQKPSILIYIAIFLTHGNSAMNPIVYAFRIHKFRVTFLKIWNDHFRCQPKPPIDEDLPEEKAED
# [1] = target: Adenosine A2 receptor (Rattus norvegicus) (UniProt P29276+P30543); test: Percent inhibition of [3H]5'-(N-ethylcarboximido)-adenosine (NECA) binding to A2 adenosine receptor; type: protein assay; design: concentration or dose not given beside the values; settings: concentration not given here
# Adenosine A2 receptor = Adenosine A2 receptor (Rattus norvegicus, UniProt P29276+P30543); test: Binding affinity to A2 adenosine receptor from rat striatal membrane in presence of [3H]5'-(N-ethylcarboximido)-adenosine
# [2] = target: T2, Adenosine receptor A1 (Rattus norvegicus) (UniProt P25099); test: Percent inhibition of [3H]R-(phenylisopropyl)-adenosine (PIA) binding to A1 adenosine receptor; settings: concentration not given here
# T2 sequence (whole entry): T1 sequence (P25099 whole entry)
pKi (Adenosine receptor A1),inhibition [1] [%],Ki (Adenosine A2 receptor) [nM],inhibition [2] [%],SMILES
5.04,22,> 30000,,Cn1c(=O)c2c(cc(-c3cccc4ccccc34)n2C)n(C)c1=O
,,25000,,Cn1c(=O)c2c(nc(-c3ccccc3)n2C)n(C)c1=O
< 4.52,1.2,> 30000,33,Cn1c(=O)c2[nH]c(-c3cccc4ccccc34)cc2n(C)c1=O
5.59,,260,,Cn1c(=O)c2c(cc(/C=C/c3ccccc3)n2C)n(C)c1=O
,,5200,,CCCn1c(=O)c2c(cc(-c3ccccc3)n2C)n(CCC)c1=O
7.59,34,> 500,,Cn1c(=O)c2[nH]c(-c3ccc4ccccc4c3)cc2n(C)c1=O
6.66,,1000,,Cn1c(=O)c2c(cc(-c3ccc4ccccc4c3)n2O)n(C)c1=O
< 4.52,38,> 100000,47,Cn1c(=O)c2c(cc(-c3cccc4ccccc34)n2O)n(C)c1=O
6.57,,1100,,Cn1c(=O)c2c(cc(-c3ccc4ccccc4c3)n2C)n(C)c1=O
6.25,,1800,,Cn1c(=O)c2c(cc(/C=C/c3ccccc3)n2O)n(C)c1=O
4.96,,40000,,Cn1c(=O)c2cc(-c3ccccc3)n(C)c2n(C)c1=O
,,14000,,Cn1c(=O)c2c(cc(-c3ccccc3)n2C)n(C)c1=O

# More lines, now with the values behind:
SMILES,pKi (Adenosine receptor A1),inhibition [1] [%],Ki (Adenosine A2 receptor) [nM],inhibition [2] [%]
CCCn1c(=O)c2[nH]ccc2n(CCC)c1=O,6.36,,5100,
CCCn1c(=O)c2c(nc(-c3ccccc3)n2C)n(CCC)c1=O,,,15000,
Cn1c(=O)c2[nH]c(-c3ccccc3)cc2n(C)c1=O,7.33,,510,
CCCn1c(=O)[nH]c2cc[nH]c2c1=O,5.77,,18000,
CCCn1c(=O)c2[nH]c(-c3ccccc3)cc2n(CCC)c1=O,7.89,,450,
Cn1c(=O)c2cc(-c3ccccc3)[nH]c2n(C)c1=O,5.51,,12000,
Cn1c(=O)[nH]c2cc[nH]c2c1=O,5.54,,34000,
CCCn1c(=O)[nH]c2cc(-c3ccccc3)[nH]c2c1=O,7.41,,1200,
Cn1c(=O)c2cc[nH]c2n(C)c1=O,4.37,39,> 250000,
CCCn1c(=O)c2[nH]c(N(C)C)cc2n(CCC)c1=O,6.89,,16000,
Cn1c(=O)c2c(ccn2C)n(C)c1=O,4.49,,72000,
CCCn1c(=O)c2c(ccn2C)n(CCC)c1=O,5.64,,13000,
Cn1c(=O)[nH]c2cc(-c3ccccc3)[nH]c2c1=O,7.01,,2000,
CCCn1c(=O)c2c(ncn2C)n(CCC)c1=O,,,10000,
Cn1c(=O)c2[nH]c(/C=C/c3ccccc3)cc2n(C)c1=O,6.78,,640,
Cn1c(=O)c2nc(-c3ccccc3)[nH]c2n(C)c1=O [8-PHENYL THEOPHYLLINE],,,830,
Cn1c(=O)c2[nH]ccc2n(C)c1=O,5.27,,12000,
